Assay results reported in publication PMC8222254, “Self-assembly of an anion receptor with metal-dependent kinase inhibition and potent in vitro anti-cancer properties” (Nature Communications, 2021).
Where “and” joins values, the source holds several entries; their conditions need not be identical. Identical values can stand only once.

What was measured:
Assay in all cases: Kinase inhibition screen, cell-free 33P ATP assay at 10 μM
Format in all cases: biochemical
[1] = target: T1, 140 purified human kinases (Homo sapiens, UniProt Q8IVH8)
T1 sequence (Q8IVH8 1-894): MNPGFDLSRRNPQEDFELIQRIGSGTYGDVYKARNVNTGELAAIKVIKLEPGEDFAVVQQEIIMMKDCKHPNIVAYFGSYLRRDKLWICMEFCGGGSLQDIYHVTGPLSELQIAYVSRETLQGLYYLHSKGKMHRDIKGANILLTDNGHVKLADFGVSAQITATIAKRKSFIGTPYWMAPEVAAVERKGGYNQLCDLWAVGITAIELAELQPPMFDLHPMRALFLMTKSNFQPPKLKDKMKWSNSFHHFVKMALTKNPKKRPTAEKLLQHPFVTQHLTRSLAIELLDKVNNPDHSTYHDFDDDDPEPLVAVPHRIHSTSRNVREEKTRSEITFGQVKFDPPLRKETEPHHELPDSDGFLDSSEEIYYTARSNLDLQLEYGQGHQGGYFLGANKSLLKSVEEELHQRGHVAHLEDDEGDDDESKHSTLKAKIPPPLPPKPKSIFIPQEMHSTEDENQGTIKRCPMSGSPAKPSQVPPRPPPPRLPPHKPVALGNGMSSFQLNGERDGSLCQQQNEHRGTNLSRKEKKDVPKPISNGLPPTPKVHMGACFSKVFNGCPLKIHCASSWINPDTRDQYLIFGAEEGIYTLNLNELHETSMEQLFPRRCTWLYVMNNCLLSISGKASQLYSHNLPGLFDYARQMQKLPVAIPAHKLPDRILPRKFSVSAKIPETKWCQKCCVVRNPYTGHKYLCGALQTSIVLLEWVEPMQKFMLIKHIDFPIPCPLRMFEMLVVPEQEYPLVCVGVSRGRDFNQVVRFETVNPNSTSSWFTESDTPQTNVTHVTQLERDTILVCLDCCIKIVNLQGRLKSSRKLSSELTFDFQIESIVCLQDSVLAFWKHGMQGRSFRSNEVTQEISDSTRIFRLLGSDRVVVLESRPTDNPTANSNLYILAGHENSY
Summary of the method: (§1)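 Each complex tested in duplicate at 10 μM; cell-free radiometric assay using ^33P ATP on purified enzymes. Hits mapped by HGNC symbol onto the kinome tree.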

[2] = target: 140 purified human kinases (Homo sapiens, UniProt P45983)
Sequence of 140 purified human kinases (Homo sapiens, UniProt P45983) (P45983 whole entry): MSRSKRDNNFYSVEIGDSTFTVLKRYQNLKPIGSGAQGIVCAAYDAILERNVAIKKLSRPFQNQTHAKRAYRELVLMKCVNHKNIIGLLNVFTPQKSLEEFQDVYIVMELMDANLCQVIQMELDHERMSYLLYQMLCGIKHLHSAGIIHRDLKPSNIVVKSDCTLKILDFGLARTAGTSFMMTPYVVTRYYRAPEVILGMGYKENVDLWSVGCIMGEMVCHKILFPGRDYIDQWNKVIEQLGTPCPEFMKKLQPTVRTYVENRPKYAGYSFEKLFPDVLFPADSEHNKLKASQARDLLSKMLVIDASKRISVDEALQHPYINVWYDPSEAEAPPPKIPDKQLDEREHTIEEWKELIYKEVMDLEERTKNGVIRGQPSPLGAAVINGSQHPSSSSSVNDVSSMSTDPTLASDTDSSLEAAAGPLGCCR
Summary of the method: as §1

[3] = target: 140 purified human kinases (Homo sapiens, UniProt Q15759); conditions: p38b MAPK
Sequence of 140 purified human kinases (Homo sapiens, UniProt Q15759) (Q15759 whole entry): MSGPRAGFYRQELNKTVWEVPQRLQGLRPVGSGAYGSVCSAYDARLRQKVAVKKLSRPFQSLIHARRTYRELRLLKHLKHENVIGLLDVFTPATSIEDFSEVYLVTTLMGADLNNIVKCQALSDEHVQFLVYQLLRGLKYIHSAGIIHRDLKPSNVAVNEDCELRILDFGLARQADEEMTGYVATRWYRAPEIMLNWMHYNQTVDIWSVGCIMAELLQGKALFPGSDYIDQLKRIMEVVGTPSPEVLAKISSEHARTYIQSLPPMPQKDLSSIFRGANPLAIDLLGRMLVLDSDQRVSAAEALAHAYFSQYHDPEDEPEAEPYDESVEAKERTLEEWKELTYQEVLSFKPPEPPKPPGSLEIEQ
Summary of the method: as §1

[4] = target: 140 purified human kinases (Homo sapiens, UniProt P80192)
Sequence of 140 purified human kinases (Homo sapiens, UniProt P80192) (P80192 whole entry): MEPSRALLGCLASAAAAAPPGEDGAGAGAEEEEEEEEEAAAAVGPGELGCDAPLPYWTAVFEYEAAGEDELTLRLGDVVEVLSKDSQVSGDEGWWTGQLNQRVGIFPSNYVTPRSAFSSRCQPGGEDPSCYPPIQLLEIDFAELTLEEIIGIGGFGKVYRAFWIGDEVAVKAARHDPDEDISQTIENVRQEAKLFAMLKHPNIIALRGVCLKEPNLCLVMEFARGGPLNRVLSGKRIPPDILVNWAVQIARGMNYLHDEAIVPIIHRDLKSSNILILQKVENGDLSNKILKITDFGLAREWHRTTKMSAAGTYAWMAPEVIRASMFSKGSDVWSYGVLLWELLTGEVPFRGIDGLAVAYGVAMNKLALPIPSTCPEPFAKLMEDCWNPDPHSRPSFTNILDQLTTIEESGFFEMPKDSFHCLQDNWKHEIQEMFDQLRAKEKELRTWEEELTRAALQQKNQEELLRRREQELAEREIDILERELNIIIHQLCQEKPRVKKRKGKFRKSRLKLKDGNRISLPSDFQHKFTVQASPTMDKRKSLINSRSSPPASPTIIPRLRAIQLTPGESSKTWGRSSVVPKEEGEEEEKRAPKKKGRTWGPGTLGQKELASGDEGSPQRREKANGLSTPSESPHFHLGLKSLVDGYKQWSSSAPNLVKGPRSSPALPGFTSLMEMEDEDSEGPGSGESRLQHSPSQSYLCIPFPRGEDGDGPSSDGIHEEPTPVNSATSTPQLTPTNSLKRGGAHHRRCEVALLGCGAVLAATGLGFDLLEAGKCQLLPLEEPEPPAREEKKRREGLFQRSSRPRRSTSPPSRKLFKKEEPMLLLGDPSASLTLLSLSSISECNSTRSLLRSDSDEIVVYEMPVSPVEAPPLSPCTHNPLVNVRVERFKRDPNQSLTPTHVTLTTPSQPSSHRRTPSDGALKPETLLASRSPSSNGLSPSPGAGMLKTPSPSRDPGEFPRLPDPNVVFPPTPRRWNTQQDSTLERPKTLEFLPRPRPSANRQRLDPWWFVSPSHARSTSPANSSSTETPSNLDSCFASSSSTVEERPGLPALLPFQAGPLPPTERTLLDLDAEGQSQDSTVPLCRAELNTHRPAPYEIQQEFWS
Summary of the method: as §1

[5] = target: T2, 140 purified human kinases (Homo sapiens, UniProt P29323)
T2 sequence (P29323 19-1055): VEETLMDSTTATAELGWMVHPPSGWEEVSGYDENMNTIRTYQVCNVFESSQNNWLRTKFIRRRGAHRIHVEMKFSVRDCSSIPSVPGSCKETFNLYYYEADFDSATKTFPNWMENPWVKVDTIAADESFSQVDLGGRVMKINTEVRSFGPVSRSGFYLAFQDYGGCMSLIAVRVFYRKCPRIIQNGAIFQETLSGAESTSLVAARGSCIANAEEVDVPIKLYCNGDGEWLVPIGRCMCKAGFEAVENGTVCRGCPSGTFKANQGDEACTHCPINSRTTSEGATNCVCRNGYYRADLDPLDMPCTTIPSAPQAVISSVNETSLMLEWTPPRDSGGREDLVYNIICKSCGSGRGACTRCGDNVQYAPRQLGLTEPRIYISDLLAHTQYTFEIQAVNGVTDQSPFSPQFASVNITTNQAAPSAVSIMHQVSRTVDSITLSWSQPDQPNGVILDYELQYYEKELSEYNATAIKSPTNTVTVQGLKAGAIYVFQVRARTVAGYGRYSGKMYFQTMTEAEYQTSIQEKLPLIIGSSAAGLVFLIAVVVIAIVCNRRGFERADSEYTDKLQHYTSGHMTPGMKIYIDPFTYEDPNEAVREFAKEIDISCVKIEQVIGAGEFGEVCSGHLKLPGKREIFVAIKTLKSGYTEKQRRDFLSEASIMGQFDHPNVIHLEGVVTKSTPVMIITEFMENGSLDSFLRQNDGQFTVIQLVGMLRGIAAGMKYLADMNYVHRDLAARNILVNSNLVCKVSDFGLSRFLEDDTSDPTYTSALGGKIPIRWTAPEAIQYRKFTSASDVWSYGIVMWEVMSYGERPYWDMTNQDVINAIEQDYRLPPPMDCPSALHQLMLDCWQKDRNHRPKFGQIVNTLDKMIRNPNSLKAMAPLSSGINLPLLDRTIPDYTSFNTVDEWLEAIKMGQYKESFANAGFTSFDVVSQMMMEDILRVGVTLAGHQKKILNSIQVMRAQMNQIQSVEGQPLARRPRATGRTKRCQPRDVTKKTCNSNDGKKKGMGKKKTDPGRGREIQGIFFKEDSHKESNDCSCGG
Summary of the method: as §1

[6] = target: 140 purified human kinases (Homo sapiens, UniProt Q6IQ55)
Sequence of 140 purified human kinases (Homo sapiens, UniProt Q6IQ55) (Q6IQ55 whole entry): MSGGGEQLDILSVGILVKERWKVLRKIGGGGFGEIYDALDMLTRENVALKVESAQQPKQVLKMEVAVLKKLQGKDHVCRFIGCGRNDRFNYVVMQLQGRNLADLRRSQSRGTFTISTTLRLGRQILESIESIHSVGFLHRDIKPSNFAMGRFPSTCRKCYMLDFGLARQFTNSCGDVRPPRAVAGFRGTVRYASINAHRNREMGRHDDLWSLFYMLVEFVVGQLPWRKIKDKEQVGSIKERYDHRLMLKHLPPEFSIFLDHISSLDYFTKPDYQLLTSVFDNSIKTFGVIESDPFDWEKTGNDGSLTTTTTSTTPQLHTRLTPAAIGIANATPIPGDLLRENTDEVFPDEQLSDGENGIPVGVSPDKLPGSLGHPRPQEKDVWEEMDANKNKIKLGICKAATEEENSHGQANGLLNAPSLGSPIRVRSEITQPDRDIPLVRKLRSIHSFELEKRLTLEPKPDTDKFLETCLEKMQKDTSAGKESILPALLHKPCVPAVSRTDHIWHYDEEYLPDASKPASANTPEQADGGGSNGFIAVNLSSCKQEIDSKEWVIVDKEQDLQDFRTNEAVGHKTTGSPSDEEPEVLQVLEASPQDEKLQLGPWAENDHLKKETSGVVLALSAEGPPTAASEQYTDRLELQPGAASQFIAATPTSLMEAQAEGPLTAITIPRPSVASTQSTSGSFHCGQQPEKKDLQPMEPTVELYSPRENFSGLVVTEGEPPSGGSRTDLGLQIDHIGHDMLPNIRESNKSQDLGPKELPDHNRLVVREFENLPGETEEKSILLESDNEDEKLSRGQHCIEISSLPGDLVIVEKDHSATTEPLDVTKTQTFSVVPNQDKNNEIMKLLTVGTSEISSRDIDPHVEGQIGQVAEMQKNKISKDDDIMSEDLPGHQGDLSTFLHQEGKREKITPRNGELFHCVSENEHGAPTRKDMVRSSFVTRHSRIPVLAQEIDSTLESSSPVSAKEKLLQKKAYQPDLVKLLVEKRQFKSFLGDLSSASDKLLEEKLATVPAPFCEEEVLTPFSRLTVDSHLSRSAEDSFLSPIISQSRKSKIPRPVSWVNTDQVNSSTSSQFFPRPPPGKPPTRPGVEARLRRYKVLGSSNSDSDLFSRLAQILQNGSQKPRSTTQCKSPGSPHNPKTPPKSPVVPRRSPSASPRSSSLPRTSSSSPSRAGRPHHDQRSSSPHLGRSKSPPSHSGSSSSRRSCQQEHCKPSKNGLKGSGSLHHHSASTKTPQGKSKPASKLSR
Summary of the method: as §1

Src = target: T3, Src (Homo sapiens, UniProt P12931); conditions: for kinase activity of Src: 10 μM complex, cell-free screen; for % Activity Run 1 / % Activity Run 2: 10 µM
T3 construct: His tag (N); host or cells: baculovirus expression system
T3 sequence (P12931 whole entry): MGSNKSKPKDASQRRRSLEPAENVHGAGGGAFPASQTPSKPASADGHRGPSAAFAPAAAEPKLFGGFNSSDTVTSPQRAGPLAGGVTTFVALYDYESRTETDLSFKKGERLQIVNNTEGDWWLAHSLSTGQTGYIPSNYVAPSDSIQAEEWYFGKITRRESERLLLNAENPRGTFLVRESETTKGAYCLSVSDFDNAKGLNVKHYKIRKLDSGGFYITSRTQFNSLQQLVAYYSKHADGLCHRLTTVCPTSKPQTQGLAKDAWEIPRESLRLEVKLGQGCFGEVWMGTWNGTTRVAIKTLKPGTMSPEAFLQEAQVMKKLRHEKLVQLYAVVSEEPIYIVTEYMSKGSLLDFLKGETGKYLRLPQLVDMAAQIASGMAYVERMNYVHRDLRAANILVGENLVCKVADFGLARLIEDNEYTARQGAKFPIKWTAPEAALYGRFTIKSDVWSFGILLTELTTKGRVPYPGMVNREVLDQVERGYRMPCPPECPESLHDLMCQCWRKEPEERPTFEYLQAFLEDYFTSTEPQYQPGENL
Summary of the method: as §1

CC(=O)[O-].CC(=O)[O-].CC(=O)[O-].CC(=O)[O-].CC(=O)[O-].CC(=O)[O-].[Zn+2].[Zn+2].[Zn+2].c1ccc(-c2csc(NCCN(CCNc3nc(-c4ccccn4)cs3)CCNc3nc(-c4ccccn4)cs3)n2)nc1.c1ccc(-c2csc(NCCN(CCNc3nc(-c4ccccn4)cs3)CCNc3nc(-c4ccccn4)cs3)n2)nc1 [[L2Zn3]6+]
% Inhibition, Mean ([1]; MAP4K3): 45% | % Inhibition, Run 1 / Run 2 ([1]; MAP4K3): 48% and 43% | mean % activity ([1]; MAP4K3): 55% | % activity ([1]; MAP4K3, duplicate runs): 52% and 58% | % Inhibition, Mean ([2]; JNK1): 5% | mean % activity ([2]; JNK1): 95% | % activity ([2]; JNK1, duplicate runs): 88% and 102% | % Inhibition, Mean [3]: -0.45% | % Inhibition, Run 1 / Run 2 [3]: 0.2% and -1.1% | mean % activity [3]: 100% | % activity ([3]; duplicate runs): 100% and 101% | % Inhibition, Mean ([4]; MLK1): 11% | mean % activity ([4]; MLK1): 89% | % activity ([4]; MLK1, duplicate runs): 83% and 96% | % Inhibition, Mean ([5]; EPH-B2): 88% | % Inhibition, Run 1 / Run 2 ([5]; EPH-B2): 89% and 87% | mean % activity ([5]; EPH-B2): 12% | % Activity inhibition Mean ([5]; EPH-B2, 10 µM): 88.0% | % Activity inhibition Run 1 ([5]; EPH-B2, 10 µM): 89% | % Activity inhibition Run 2 ([5]; EPH-B2, 10 µM): 87% | % Activity remaining Run 1 ([5]; EPH-B2, 10 µM): 11% | % Activity remaining Run 2 ([5]; EPH-B2, 10 µM): 13% | % activity ([5]; EPH-B2, duplicate runs): 11% and 13% | % Activation, Mean value ([6]; TTBK2): 0.5% | % Inhibition, Mean ([6]; TTBK2): -0.5% | mean % activity ([6]; TTBK2): 101% | % activity ([6]; TTBK2, duplicate runs): 91% and 110% | kinase activity of Src (Src): increased | % Activation, Mean value (Src; Src): 75% | % Inhibition, Mean (Src; Src): -75% | mean % activity (Src; Src): 175% | % Activity Run 1 (Src; Src): 169.0% | % Activity Run 2 (Src; Src): 180.0% | % activity (Src; Src, duplicate runs): 169% and 180%

[Cu+2].[Cu+2].[Cu+2].c1ccc(-c2csc(NCCN(CCNc3nc(-c4ccccn4)cs3)CCNc3nc(-c4ccccn4)cs3)n2)nc1.c1ccc(-c2csc(NCCN(CCNc3nc(-c4ccccn4)cs3)CCNc3nc(-c4ccccn4)cs3)n2)nc1 [[L2Cu3]6+]
% Inhibition Run 1 ([1]; MAP4K3): 72.4% | % Inhibition Run 2 ([1]; MAP4K3): 85.5% | % Inhibition, Mean ([1]; MAP4K3): 79% | mean % activity ([1]; MAP4K3): 21% | % activity ([1]; MAP4K3, Run 1): 27.6% | % activity ([1]; MAP4K3, Run 2): 14.5% | % Inhibition Run 1 ([2]; JNK1): 20.4% | % Inhibition Run 2 ([2]; JNK1): 5.8% | % Inhibition, Mean ([2]; JNK1): 13% | mean % activity ([2]; JNK1): 87% | % activity ([2]; JNK1, Run 1): 79.6% | % activity ([2]; JNK1, Run 2): 94.2% | % Inhibition Run 1 [3]: 24.1% | % Inhibition Run 2 [3]: 0.3% | % Inhibition, Mean [3]: 12% | mean % activity [3]: 88% | % activity ([3]; Run 1): 75.9% | % activity ([3]; Run 2): 99.7% | % Inhibition Run 1 ([4]; MLK1): 83.6% | % Inhibition Run 2 ([4]; MLK1): 85.4% | % Inhibition, Mean ([4]; MLK1): 85% | mean % activity ([4]; MLK1): 16% | % activity ([4]; MLK1, Run 1): 16.4% | % activity ([4]; MLK1, Run 2): 14.6% | % Inhibition Run 1 ([5]; EPH-B2): 57.3% | % Inhibition Run 2 ([5]; EPH-B2): 57.8% | % Inhibition, Mean ([5]; EPH-B2): 58% | mean % activity ([5]; EPH-B2): 42% | % activity ([5]; EPH-B2, Run 1): 42.7% | % activity ([5]; EPH-B2, Run 2): 42.2% | % Inhibition Run 1 ([6]; TTBK2): 13% | % Inhibition Run 2 ([6]; TTBK2): -12.2% | % Inhibition, Mean ([6]; TTBK2): 0.4% | mean % activity ([6]; TTBK2): 100% | % activity ([6]; TTBK2, Run 1): 87% | % activity ([6]; TTBK2, Run 2): 112.2% | kinase activity of Src (Src): increased | % Activation, Mean value (Src; Src): 115% | % Inhibition Run 1 (Src; Src): -109.2% | % Inhibition Run 2 (Src; Src): -121.7% | % Inhibition, Mean (Src; Src): -115% | mean % activity (Src; Src): 215% | % activity (Src; Src, Run 1): 209.2% | % activity (Src; Src, Run 2): 221.7% | % Activity Run 1 (Src; Src): 209.20% | % Activity Run 2 (Src; Src): 221.70%
